Data: ChEMBL document CHEMBL3826915, “Design and comparative anticonvulsant activity assessment of CNS-active alkyl-carbamoyl imidazole derivatives” (Bioorg Med Chem, 2016)
Active and inactive are the calls of the source.

Columns and labels:
Mus musculus [1] = assay: Anticonvulsant activity in albino CF1 mouse assessed as protection against maximal electroshock-induced seizures at 100 mg/kg, ip after 0.5 hrs; assay type: functional, organism-based
Mus musculus [2] = assay: Anticonvulsant activity in albino CF1 mouse assessed as protection against maximal electroshock-induced seizures at 30 mg/kg, ip after 2 hrs; assay type: functional, organism-based
Mus musculus [3] = assay: Anticonvulsant activity in albino CF1 mouse assessed as protection against maximal electroshock-induced seizures at 100 mg/kg, ip after 2 hrs; assay type: functional, organism-based
Mus musculus [4] = assay: Anticonvulsant activity in albino CF1 mouse assessed as protection against 32 mA current-induced seizure at 30 mg/kg, ip after 0.5 hrs by 6 Hz psychomotor test; assay type: functional, organism-based
Mus musculus [5] = assay: Anticonvulsant activity in albino CF1 mouse assessed as protection against 32 mA current-induced seizure at 100 mg/kg, ip after 0.5 hrs by 6 Hz psychomotor test; assay type: functional, organism-based
Mus musculus [6] = assay: Anticonvulsant activity in albino CF1 mouse assessed as protection against 32 mA current-induced seizure at 30 mg/kg, ip after 2 hrs by 6 Hz psychomotor test; assay type: functional, organism-based
Mus musculus [7] = assay: Anticonvulsant activity in albino CF1 mouse assessed as protection against 44 mA current-induced seizure at 100 mg/kg, ip after 0.25 hrs by 6 Hz psychomotor test; assay type: functional, organism-based
Mus musculus [8] = assay: Anticonvulsant activity in albino CF1 mouse assessed as protection against 44 mA current-induced seizure at 100 mg/kg, ip after 2 hrs by 6 Hz psychomotor test; assay type: functional, organism-based
Mus musculus [9] = assay: Neurotoxicity in albino CF1 mouse assessed as behavioral impairment at 30 mg/kg, ip after 0.5 hrs by rotorod test; assay type: toxicity, organism-based; details: in vivo
Mus musculus [10] = assay: Neurotoxicity in albino CF1 mouse assessed as behavioral impairment at 100 mg/kg, ip after 0.5 hrs by rotorod test; assay type: toxicity, organism-based; details: in vivo
Mus musculus [11] = assay: Neurotoxicity in albino CF1 mouse assessed as behavioral impairment at 300 mg/kg, ip after 0.5 hrs by rotorod test; assay type: toxicity, organism-based; details: in vivo
Mus musculus [12] = assay: Neurotoxicity in albino CF1 mouse assessed as behavioral impairment at 30 mg/kg, ip after 2 hrs by rotorod test; assay type: toxicity, organism-based; details: in vivo
Mus musculus [13] = assay: Neurotoxicity in albino CF1 mouse assessed as behavioral impairment at 100 mg/kg, ip after 2 hrs by rotorod test; assay type: toxicity, organism-based; details: in vivo
Mus musculus [14] = assay: Neurotoxicity in albino CF1 mouse assessed as behavioral impairment at 100 mg/kg, ip after 0.25 hrs by rotorod test; assay type: toxicity, organism-based; details: in vivo
Mus musculus [15] = assay: Neurotoxicity in albino CF1 mouse assessed as behavioral impairment at 100 mg/kg, ip after 1 hr by rotorod test; assay type: toxicity, organism-based; details: in vivo
Rattus norvegicus [16] = assay: Anticonvulsant activity in albino Sprague-Dawley rat assessed as protection against maximal electroshock-induced seizures at 30 mg/kg, po after 0.25 hrs; assay type: functional, organism-based
Rattus norvegicus [17] = assay: Anticonvulsant activity in albino Sprague-Dawley rat assessed as protection against maximal electroshock-induced seizures at 30 mg/kg, po after 0.5 hrs; assay type: functional, organism-based
Rattus norvegicus [18] = assay: Anticonvulsant activity in albino Sprague-Dawley rat assessed as protection against maximal electroshock-induced seizures at 30 mg/kg, po after 1 hr; assay type: functional, organism-based
Rattus norvegicus [19] = assay: Anticonvulsant activity in albino Sprague-Dawley rat assessed as protection against maximal electroshock-induced seizures at 30 mg/kg, po after 2 hrs; assay type: functional, organism-based
Rattus norvegicus [20] = assay: Neurotoxicity in albino Sprague-Dawley rat assessed as behavioral impairment at 30 mg/kg, ip after 0.25 hrs by rotorod test; assay type: toxicity, organism-based; details: in vivo
Rattus norvegicus [21] = assay: Neurotoxicity in albino Sprague-Dawley rat assessed as behavioral impairment at 30 mg/kg, po after 0.25 hrs by rotorod test; assay type: toxicity, organism-based; details: in vivo
Rattus norvegicus [22] = assay: Neurotoxicity in albino Sprague-Dawley rat assessed as behavioral impairment at 30 mg/kg, ip after 0.5 hrs by rotorod test; assay type: toxicity, organism-based; details: in vivo
Rattus norvegicus [23] = assay: Neurotoxicity in albino Sprague-Dawley rat assessed as behavioral impairment at 30 mg/kg, po after 0.5 hrs by rotorod test; assay type: toxicity, organism-based; details: in vivo
Rattus norvegicus [24] = assay: Neurotoxicity in albino Sprague-Dawley rat assessed as behavioral impairment at 30 mg/kg, ip after 1 hr by rotorod test; assay type: toxicity, organism-based; details: in vivo
Rattus norvegicus [25] = assay: Neurotoxicity in albino Sprague-Dawley rat assessed as behavioral impairment at 30 mg/kg, po after 1 hr by rotorod test; assay type: toxicity, organism-based; details: in vivo
Rattus norvegicus [26] = assay: Neurotoxicity in albino Sprague-Dawley rat assessed as behavioral impairment at 30 mg/kg, ip after 2 hrs by rotorod test; assay type: toxicity, organism-based; details: in vivo
Rattus norvegicus [27] = assay: Neurotoxicity in albino Sprague-Dawley rat assessed as behavioral impairment at 30 mg/kg, po after 2 hrs by rotorod test; assay type: toxicity, organism-based; details: in vivo
Rattus norvegicus [28] = assay: Anticonvulsant activity in ip dosed albino Sprague-Dawley rat assessed as protection against maximal electroshock-induced seizures; assay type: functional
Rattus norvegicus [29] = assay: Anticonvulsant activity in ip dosed albino Sprague-Dawley rat assessed as protection against maximal electroshock-induced seizures by measuring time to peak effect; assay type: functional
[30] = Protective index, ratio of TD50 for neurotoxicity in ip dosed albino Sprague-Dawley rat to ED50 for anticonvulsant activity in ip dosed maximal electroshock-induced seizure albino Sprague-Dawley rat model; assay type: toxicity, organism-based; details: in vivo, read-out: Ratio TD50/ED50
Rattus norvegicus [31] = assay: Anticonvulsant activity in ip dosed albino Sprague-Dawley rat assessed as protection against subcutaneous metrazol-induced seizures; assay type: functional
[32] = Protective index, ratio of TD50 for neurotoxicity in ip dosed albino Sprague-Dawley rat to ED50 for anticonvulsant activity in ip dosed subcutaneous metrazol-induced seizure albino Sprague-Dawley rat model; assay type: toxicity, organism-based; details: in vivo, read-out: Ratio TD50/ED50
[33] = Neurotoxicity in ip dosed albino Sprague-Dawley rat assessed as motor impairment by rotorod test; assay type: toxicity, organism-based; details: in vivo
Rattus norvegicus [34] = assay: Anticonvulsant activity in ip dosed albino Sprague-Dawley rat assessed as protection against subcutaneous metrazol-induced seizures by measuring time to peak effect; assay type: functional
Mus musculus [35] = assay: Anticonvulsant activity in ip dosed albino CF1 mouse assessed as protection against maximal electroshock-induced seizures; assay type: functional
Mus musculus [36] = assay: Anticonvulsant activity in ip dosed albino CF1 mouse assessed as protection against subcutaneous metrazol-induced seizures; assay type: functional
Mus musculus [37] = assay: Anticonvulsant activity in ip dosed albino CF1 mouse assessed as protection against maximal electroshock-induced seizures by measuring time to peak effect; assay type: functional
Mus musculus [38] = assay: Anticonvulsant activity in ip dosed albino CF1 mouse assessed as protection against subcutaneous metrazol-induced seizures by measuring time to peak effect; assay type: functional
Mus musculus [39] = assay: Anticonvulsant activity in ip dosed albino CF1 mouse assessed as protection against 6 Hz current-induced seizures by psychomotor test; assay type: functional
Mus musculus [40] = assay: Anticonvulsant activity in ip dosed albino CF1 mouse assessed as protection against 6 Hz current-induced seizure by measuring time to peak effect; assay type: functional
[41] = Protective index, ratio of TD50 for neurotoxicity in ip dosed albino CF1 mouse to ED50 for anticonvulsant activity in ip dosed 6 Hz current-induced seizure albino CF1 mouse model; details: in vivo
[42] = Neurotoxicity in ip dosed albino CF1 mouse assessed as motor impairment by rotorod test; assay type: toxicity, organism-based; details: in vivo

CC(COC(=O)NCCCn1ccnc1)CC(C)(C)C (configuration not stated)
0.25 h: Time (Rattus norvegicus [29]) | Time (Rattus norvegicus [34])
active: Activity (Mus musculus [1]) | Activity (Mus musculus [3]) | Activity (Mus musculus [5]) | Activity (Mus musculus [7])
inactive: Activity (Mus musculus [2]) | Activity (Mus musculus [4]) | Activity (Mus musculus [6]) | Activity (Mus musculus [8]) | Activity (Rattus norvegicus [16]) | Activity (Rattus norvegicus [17]) | Activity (Rattus norvegicus [18]) | Activity (Rattus norvegicus [19]) | ED50 (Mus musculus [35]) | ED50 (Mus musculus [36])
> 70 mg/kg: ED50 (Rattus norvegicus [31])
60 mg/kg: TD50 [42]
0.5 h: Time (Mus musculus [37]) | Time (Mus musculus [38]) | Time (Mus musculus [40])
1: selectivity ratio [32]
17 mg/kg: ED50 (Rattus norvegicus [28])
Toxic: Activity (Mus musculus [10]) | Activity (Mus musculus [11]) | Activity (Mus musculus [14])
4.1: selectivity ratio [30]
1.4: selectivity ratio [41]
44 mg/kg: ED50 (Mus musculus [39])
Non-toxic: Activity (Mus musculus [9]) | Activity (Mus musculus [12]) | Activity (Mus musculus [13]) | Activity (Mus musculus [15]) | Activity (Rattus norvegicus [20]) | Activity (Rattus norvegicus [21]) | Activity (Rattus norvegicus [22]) | Activity (Rattus norvegicus [23]) | Activity (Rattus norvegicus [24]) | Activity (Rattus norvegicus [25]) | Activity (Rattus norvegicus [26]) | Activity (Rattus norvegicus [27])
70 mg/kg: TD50 [33]
